Laboratory results taken from paper PMC7038631 (Alzheimer's & dementia : the journal of the Alzheimer's …, 2019).
Entries after “also recorded” stand apart in the source; their conditions may differ.

Columns and labels:
[1] = target: purified WT tau proteins (Homo sapiens, UniProt P10636); assay: Heparin induced thioflavin-T; type: biochemical
[2] = tested on: untransfected SH-SY5Y cells; settings: MK-886 0.5, 1 or 2 μM
[3] = target: tau preformed fibrils (PFF) (Homo sapiens, UniProt P10636); assay: ThT signal of tau preformed fibrils; type: biochemical; settings: DTT 5 mM
[4] = target: purified recombinant full-length 2N4R wild-type (WT) tau (Homo sapiens, UniProt P10636); assay: Surface plasmon resonance binding to immobilized WT tau; settings: read-out: Kd, binding to purified WT tau protein (SPR); steady-state, 25 °C, 1 nM to 5 μM
[5] = tested on: WT 2N4R tau monomer; assay: Single-molecule FRET; type: biochemical; settings: 5 μM, vs buffer or DMSO
[6] = FRET control cells expressing free fluorophores; type: cell-based, human

Chain of purified WT tau proteins (P10636 1-441 isoform P10636-8): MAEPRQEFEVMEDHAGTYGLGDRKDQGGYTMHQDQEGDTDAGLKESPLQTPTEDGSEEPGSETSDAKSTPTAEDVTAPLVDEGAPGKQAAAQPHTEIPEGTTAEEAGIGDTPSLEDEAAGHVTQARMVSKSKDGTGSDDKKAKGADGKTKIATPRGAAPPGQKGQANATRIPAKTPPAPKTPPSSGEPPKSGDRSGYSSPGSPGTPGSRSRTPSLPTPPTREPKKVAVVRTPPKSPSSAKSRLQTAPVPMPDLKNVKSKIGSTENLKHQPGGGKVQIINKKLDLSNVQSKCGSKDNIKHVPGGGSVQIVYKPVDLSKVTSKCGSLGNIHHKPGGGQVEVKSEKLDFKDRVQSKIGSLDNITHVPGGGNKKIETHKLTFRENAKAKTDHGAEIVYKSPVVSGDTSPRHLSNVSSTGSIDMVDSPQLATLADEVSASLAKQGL
Chain of tau preformed fibrils (PFF) (P10636 1-441 isoform P10636-8): as above
Chain of purified recombinant full-length 2N4R wild-type (WT) tau (P10636 1-441 isoform P10636-8): as above

| Structure (SMILES) | Direct effect on ThT fluorescence [1] | Effect on lag phase of tau β-sheet fibril formation (ThT) ([1]; heparin 0.4 mg/ml, MK-886 0.5 and 5 μM) | Nucleation of tau fibril formation without heparin (ThT) ([1]; no heparin) | Rescue of cell cytotoxicity induced by UC-112 ([2]; UC-112 1 μM) | Rescue of cell cytotoxicity induced by YM-155 ([2]; YM-155 1 μM) | Effect on ThT signal from tau PFF [3] | Kd [4] | smFRET change, N-terminal domain labeled tau construct [5] | smFRET change, PRR/MTBR labeled tau construct [5] | Action on cytosolic fluorophores (control FRET) [6] |
| --- | --- | --- | --- | --- | --- | --- | --- | --- | --- | --- |
| CC(C)c1ccc2c(c1)c(SC(C)(C)C)c(CC(C)(C)C(=O)O)n2Cc1ccc(Cl)cc1 [MK-886] | did not have a direct effect | reduces the lag phase; also recorded: shortens the lag phase | unable to nucleate tau fibrillization; also recorded: did not act to nucleate | did not rescue | did not rescue | did not reduce | 178 nM | minor decrease in FRET | substantial increase in FRET | not acting on the cytosolic fluorophores |
| O=c1c(O)c(-c2ccc(O)c(O)c2)oc2c(O)c(O)cc(O)c12 [gossypetin] | – | – | – | – | – | significant decrease | – | – | – | – |
